According to patent publication US9149492B2, “Method for selectively inhibiting ACAT1 in the treatment of alzheimer's disease” (Trustees of Dartmouth College, priority 2008, dated 2015):
Peptide text beside a SMILES is read from it.

Assays:
[1] = system: hippocampal neurons from A1+/Alz mice; test: 24SOH treatment of hippocampal neurons, hAPP and HMGR content; assay type: cell-based, mouse
Experimental: Hippocampal neurons were isolated from A1+/Alz and A1−/Alz mice at postnatal day 5 according to standard protocols (Brewer (1997) J. Neurosci. Methods 71:143-155; Price & Brewer (2001) In Protocols for Neural Cell Culture. Fedoroff & Richardson, editors. Totowa, N.J.: Humana Press, Inc. 255-264). Cells were seeded in 6-well dishes in triplicates at 300,000 cells/well, and grown in 3 ml/well Neurobasal A medium with 1×B27, 0.5 mM L-Gln and 5 ng/ml FGF for 14 days. Half of the medium was replaced with […] fresh media once every 7 days. Forty-eight hours after the second media replacement, 50 μCi of [^3H] sodium acetate (100 mCi/mmol) in PBS was added per well for 3 hours. Lipids in cells and in media were extracted, saponified, and analyzed by using the same TLC system described herein. To minimize sterol oxidation, samples were protected from light and heat during lipid extraction, and were analyzed without storage. To improve separation, after sample loading, the TLC plate was placed under vacuum for 30 minutes prior to chromatography. ^3H-labeled sterol bands were identified based on iodine staining of unlabeled sterols added to samples prior to lipid extraction. Rf values: lanosterol, 0.5; cholesterol, 0.38; 24SOH, 0.2. The bands were scraped off and counted. For each labeled sterol, the counts present in cells and in media were added to calculate the synthesis rate for that sterol. Cholesterol esterification in intact cells was conducted according to established methods (Chang, et al. (1986) Biochemistry 25:1693-1699); the ^3H-oleate pulse time was 3 hours.
To test this, hippocampal neurons from A1+/Alz mice were treated with 24SOH, and the hAPP protein content and the HMGR protein content were monitored in parallel.

WT or A1-microglia = test: Pulse-chase of intracellular oAβ42 degradation in microglia with lysosomal inhibitors; assay type: cell-based, mouse; settings: pre-incubation with inhibitor, 0.5 μM oAβ 30 minutes, 6 hours chase
Experimental: WT or A1-microglia were pretreated with DMSO only; with bafilomycin A1 (BafA1), a lysosomal v-ATPase inhibitor (250 nM); with Ac-LVK-CHO, a cell permeable cathepsin B inhibitor (CapB I) at 1 μM; or with pepstatin A methyl ester, a cell permeable aspartyl peptidase inhibitor at 25 μM, for 60 minutes. Cells with or without the inhibitors were further incubated with 0.5 μM oAβ for 30 minutes. Cells were washed with pre-warmed PBS (twice) and pre-warmed medium (once) and then further incubated in fresh serum-free DMEM/F-12 (50:50) for 6 hours. At the end of incubation, cells were washed with PBS twice and lysed with 1% SDS containing a protease inhibitor cocktail. Intracellular oAβ levels were examined by ELISA. The values were normalized by cellular protein contents. The data are averages of 3-4 independent experiments. (mean±SEM, n.s. not significant, *p<0.05, p<0.01, ***p<0.001).
Pulse-chase of oAβ42 was also carried out (FIG. 4A) and the fate of oAβ42 was monitored via an ELISA assay.

AD mice = settings: in vivo, cited from earlier work
[2] = system: transgenic mice expressing human APP(751) containing the London (V717I) and Swedish (K670M/N671L) mutations; settings: cited from earlier work
WT microglia = test: Oligomeric Aβ clearance from medium by microglia; assay type: cell-based, mouse; settings: 1 μM pretreatment 24 hours, then 0.5 μM oAβ 18 hours
Experimental: WT or A1-microglia were treated with K604 at 1 μM in DMEM/F-12 (50:50) with 10% FBS for 24 hours. Control (Veh) or K604-treated microglia were subsequently incubated with 0.5 μM oAβ in serum-free DMEM/F-12 (50:50) containing 10 μg/ml BSA for 18 hours. At the end of incubation, the media were collected and the residual oAβ levels were detected by western blot analysis. Quantification was performed with image J software (mean±SEM, ***p<0.001).
Primary microglia from normal (WT) and Acat1-knockout (A1−) mouse brains were cultured in vitro. Oligomeric Aβ42 (0.5 μM) in serum-free DMEM/F-12 (50:50) medium containing 10 μg/ml BSA was added to the culture and the culture was incubated for 0, 3, 6, 12 or 18 hours. The remaining Aβ levels (1+2+3+4mers) in the media were analyzed by western blot analysis.
Clearance of oAβ in WT microglia and WT microglia pretreated with the ACAT1-selective inhibitor K604 was also determined.

mouse ACAT1 = mouse ACAT1 (Mus musculus (Mouse), UniProt Q61263); test: ACAT1 western blot in NIH-3T3 fibroblasts transfected with microRNA; assay type: cell-based; settings: 48 hours post-transfection, GFP-positive cells
Source text: NIH-3T3 mouse fibroblasts were transiently transfected with one of several rAAV vectors encoding EmGFP and microRNA (miR) #52, #53, #54 or #55. Forty-eight hours post-transfection, GFP-positive cells were harvested by FACS. GFP-positive cells were washed then lysed in 10% SDS and syringe homogenized. Twenty microgram of protein per sample was subjected to SDS-PAGE. After western blot analysis, bands were quantified with ImageJ. ACAT1 intensity was normalized to GAPDH as a loading control and expressed as relative intensity.
Four different siRNA molecules (#52-#55; SEQ ID NOs:37-40; Table 3) targeting the mouse Acat1 gene were inserted into an endogenous mouse microRNA (miR) scaffold using Invitrogen's RNAi design tool. The artificial miRs were ligated into the mammalian expression vector pcDNA6.2-GW/EmGFP-miR. These. […] The miRs were delivered to the cells using a standard cDNA transfection protocol.

human ACAT2 = human ACAT2 (Homo sapiens (Human), UniProt O75908); settings: read-out: IC50 hACAT-2; cited from earlier work
Sequence of human ACAT2 (O75908 whole entry): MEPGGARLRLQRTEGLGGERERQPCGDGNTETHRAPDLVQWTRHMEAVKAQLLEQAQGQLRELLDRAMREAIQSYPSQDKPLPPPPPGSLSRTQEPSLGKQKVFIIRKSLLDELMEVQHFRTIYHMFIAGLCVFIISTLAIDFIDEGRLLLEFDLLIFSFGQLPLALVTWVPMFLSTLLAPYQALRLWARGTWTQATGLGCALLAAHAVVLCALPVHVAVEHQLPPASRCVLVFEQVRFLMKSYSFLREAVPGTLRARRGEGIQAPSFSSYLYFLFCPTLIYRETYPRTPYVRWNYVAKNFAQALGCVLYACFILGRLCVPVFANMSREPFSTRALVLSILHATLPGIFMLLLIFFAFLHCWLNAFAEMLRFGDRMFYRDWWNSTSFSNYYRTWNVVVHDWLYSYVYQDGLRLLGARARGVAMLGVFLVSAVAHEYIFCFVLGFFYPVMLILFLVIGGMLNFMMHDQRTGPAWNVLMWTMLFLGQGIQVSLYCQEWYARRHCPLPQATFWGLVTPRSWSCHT

Compound: CC(C)[C@@H](O)CC[C@@H](C)[C@H]1CC[C@H]2[C@@H]3CC=C4C[C@@H](O)CC[C@]4(C)[C@H]3CC[C@]12C [24SOH, 24S-hydroxycholesterol]
- HMGR protein content ([1]; 1 μM, within 3 hours): rapidly decreased
- hAPP protein content ([1]; 1 μM, within 3 hours): rapidly decreased
- hAPP mRNA level ([1]; 1-5 μM): without affecting
- hAPP protein content ([1]; 1-5 μM): rapid decline

Compound: CC(=O)N[C@@H](CC(C)C)C(=O)N[C@H](C(=O)N[C@H](C=O)CCCCN)C(C)C [Ac-LVK-CHO] (Ac-Leu-Val-Lys-aldehyde)
- difference in oAβ42 degradation between WT and A1-microglia (WT or A1-microglia): abolished

Compound: CC(C)c1cc(C(C)C)c(CC(=O)NS(=O)(=O)Oc2c(C(C)C)cccc2C(C)C)c(C(C)C)c1 [CI 1011]
- amyloid plaques (AD mice; mouse): significantly reduced
- cognitive deficits (AD mice; mouse): rescued
- mature/immature ratio of hAPP (AD mice; mouse): decreases

Compound: CCCCCCCC[C@H](SCCCCCC)C(=O)Nc1c(SC)cc(C)nc1SC [CP-113,818]
- processing of both human APP and mouse APP (AD mice): inhibits
- amyloid plaques (AD mice; mouse): significantly reduced
- cognitive deficits (AD mice; mouse): rescued
- spatial learning ([2]; mouse, in vivo): slightly improved
- ectodomain shedding of endogenous APP in the brain ([2]; nontransgenic littermates): reduced
- reduction of accumulation of amyloid plaques ([2]; two months of treatment): 88%-99%
- reduction of membrane/insoluble Amyloid β levels ([2]; two months of treatment): 83%-96%

Compound: CSc1cc(C)nc(SC)c1NC(=O)CN1CCN(CCSc2nc3ccccc3[nH]2)CC1 [K-604]
- enhancement of ability to clear oAβ42 from the medium (WT microglia): up to 65%
- oAβ degradation in microglia (WT microglia): promotes oAβ degradation

Compound: miR Negative Control: negative control miR 5′-TACTGCGCGTGGAGACG-3′ (SEQ ID NO:46), matches no known vertebrate gene (chemistry not given here)
- Relative Intensity (ACAT1 normalized to GAPDH) (mouse ACAT1): 1.02

Compound: saucerneol B
- IC50 (human ACAT2): 124 µM
